Measurements: a melting point compilation (Tetko et al.; mined from patent text by program, amines drawn as free bases though some values may be those of a salt)

SMILES | melting point
[N-]=[N+]=NC[C@H]1CN(c2ccc(N3CCSCC3)c(F)c2)C(=O)O1 | 91.5 to 93 °C
CC(=O)NC1CCN(c2cccc(Sc3ccccc3)n2)CC1 | 110 to 112 °C
CC(=O)c1cccc(NC(=O)NC2N=C(C(C)C)c3ccccc3N(CC(=O)N3CC4CCC(CC4)C3)C2=O)c1 (stereo unspecified) | 138 to 140 °C
O=C(O)CCCCOc1ccc(N2CCN(c3ccncc3)CC2)cc1 | 237 to 241 °C
NS(=O)(=O)c1ccc(C2=C(c3ccc(Cl)c(Cl)c3)CCC2)cc1 | 134 to 135 °C
O=[N+]([O-])C1=C2N(Cc3cnc(Cl)s3)CCN2C2CCC1O2 (stereo unspecified) | 152 °C
O=[N+]([O-])C=C(NCCSCc1ncccc1Br)NCCSCc1ncccc1Br | 122 to 123 °C
N#Cc1cccc2c(O)c(C(=O)NCc3ccc(Cl)cc3)cnc12 | 287 to 289 °C
NCC(O)c1cc(Cl)cc(Cl)n1 (stereo unspecified) | 117 to 118 °C
COc1ccc2c(c1)Sc1c(cc(OC)c(OC)c1Br)N2C(C)=O | 147 to 149 °C
Cc1cc(C)c(CCCc2c(C)nc(N)nc2N)cc1C | 188 to 190 °C
COc1ccc(/C=C(\C#N)c2ccccc2C(F)(F)F)cc1OC1CCCC1 | 96 to 98 °C
CC(CCCN(C)c1ccccc1)NCC(O)c1ccc(O)c(C(N)=O)c1 (stereo unspecified) | 155 to 157 °C
COc1ccc(NC(=O)NCCCl)cc1OC | 117 °C
O=C1CCCN2N=C(c3ccc(Br)cc3)SC2=N1 | 204 to 207 °C
CC[C@H](NC(=O)OC(C)(C)C)c1nc2c(C(F)(F)F)cccc2c(O)c1C(=O)Nc1nccs1 | 260 to 262 °C
CCCc1c(OCCCOc2cc(OCC(=O)O)ccc2C(C)=O)ccc(C(C)=O)c1O | 151 to 155 °C
CCCCCc1cccc2c1NC(=O)C2=O | 119 to 121 °C
O=C(O)c1[nH]cc(OCc2ccccc2)c(=O)c1Br | 120 °C
CC(=O)Nc1ccc2c(c1)CCCC2 | 62 °C
Cc1oc(C2CC=CCC2)nc1CC(=O)O (stereo unspecified) | 86 to 87 °C
O=c1[nH]c2cc(Cl)ccc2c(=O)c(-c2ccco2)c1O | 233 to 234 °C
COc1ccc(C=C(c2ccc(OC)cc2)c2ccc(OC)cc2)cc1 | 100 to 101 °C

SMILES | melting point
COc1ccc(S(=O)(=O)C(CCCc2ccccc2)CC(=O)O)cc1OC (stereo unspecified) | 161 to 162 °C
COc1ccc(C(=O)c2ccccc2)cc1OC1CCCC1 | 73.5 to 75 °C
CCOC(=O)c1nc2sc(C(C)C)cc2c(=O)[nH]1 | 182 to 183 °C
COc1ccc(-c2cc(=O)n(CC=Cc3ccc(Cl)cc3)nc2-c2ccc(OC)c(F)c2)cc1 | 144 to 145 °C
COc1cc2ccccc2cc1-c1nc(N)nc(N)n1 | 243 to 244 °C
Cc1c(C(=O)N=C(N)N)cc(S(C)(=O)=O)c(-n2ccnc2)c1C | 249 °C
Cc1cc(Nc2ccc(Cl)cc2)nc(-c2cccc(Cl)n2)n1 | 239 °C
CCCCCCCCCCCCCCCCCCOC(=O)c1ccc(N)cc1 | 60 to 70 °C
CC(=O)n1cc(C#N)c(-c2ccccc2C(F)(F)F)c1 | 67 to 69 °C
CC(=O)Oc1ccc(C(Cl)=CC=O)cc1[N+](=O)[O-] | 128 to 130 °C
CC(CS(=O)(=O)c1ccc(-c2ccc3c(c2)OCO3)cc1)N(O)C=O (stereo unspecified) | 200 to 201 °C
Cc1cc(=O)[nH]nc1-c1ccc(-c2ccc(F)cc2)cc1 | 245 to 247 °C
CCCCCCCCCCCCCCCCCCOc1cc(NC(=O)OCc2ccccc2)cc(OCCCCC(=O)OC)c1 | 59 to 62 °C
COc1ccc(C[C@H]2Cc3cc(C)cnc3[C@H](C)C2)cc1 | 218 to 222 °C
O=c1c2c(-c3ccccc3)n[nH]c2c2cccnc2n1-c1ccccc1 | > 300 °C
CCOC(=O)COc1ccc2c(=O)c3ccccc3oc2c1Cl | 183 to 185 °C
CS(=O)(=O)N(c1cccc(C(=O)Nc2nccs2)c1)C1CN(C(c2ccc(Cl)cc2)c2ccc(Cl)cc2)C1 | 244 °C
COc1ccccc1-c1cn(C)cc(-c2cccc(C(F)(F)F)c2)c1=O | 193 to 196 °C
Cn1nc(C2CCN(CCn3c(=O)[nH]c4ccccc4c3=O)CC2)c2ccc(F)cc21 | 250 °C
COc1cccc2c(C)c3n(c(=O)c12)CCCS3(=O)=O | 198 to 199 °C
O=C1c2cccc(-n3c(=O)[nH]c4ncccc4c3=O)c2C2CCCCN12 (stereo unspecified) | > 290 °C
CNS(=O)(=O)c1ccc2c3c(cc([N+](=O)[O-])c2c1)N(C(=O)c1cc2cc(OCCN(C)C)ccc2[nH]1)CC3CCl (stereo unspecified) | > 350 °C
CC(C)(C)OC(=O)NC(Cc1c[nH]c2ccccc12)C(=O)CCc1cc(C(F)(F)F)cc(C(F)(F)F)c1 (stereo unspecified) | 138 to 140 °C

SMILES | melting point
Clc1ccc(OCc2ccccc2)nn1 | 77 to 78 °C
COc1cc2c(cc1OC)-c1cc(OC)c(OC)cc1C2=Cc1ccnc2ccccc12 | 226 to 228 °C
CCOC(=O)C(=O)CC(=O)c1cn(Cc2ccc3ccccc3n2)c2ccccc2c1=O | 237 to 238 °C
CC1(C)N=C(c2ccccc2F)c2cc([N+](=O)[O-])ccc2NC1=O | 241 °C
CC(C)(C)OC(=O)N1CCC[C@H]1COc1cccc2c1ccn2S(=O)(=O)c1ccccc1 | 48 to 50 °C
COc1ccc(-c2c(C(=O)O)c(=O)n(C)c3ccc(Cl)cc23)cc1OC | 230 to 232 °C
O=C1[C@H]2CCC[C@H]2Nc2ccccc2N1Cc1ccc(OCc2ccccc2)cc1 (relative stereo) | 154 to 155 °C
O=c1cc(Nc2ccc3c(c2)CCC3)[nH]c(=S)[nH]1 | 269 to 272 °C
Cn1c(=O)c2[nH]c(CCCC(=O)O)nc2n(C)c1=O | 254 to 255 °C
Cc1cccc(C(=O)Nc2c[nH]nc2C(=O)NCCO)n1 | 252 to 253 °C
CSc1ccc(-c2ccc(C(CCC(=O)O)=NO)cc2)cc1 | 162 to 164 °C
Nc1nc(-c2ccc(F)c3ccccc23)co1 | 171 to 174 °C
CCOC(=O)C1=Cc2cc(Cl)c(C)c(Cl)c2OC1C(F)(F)F (stereo unspecified) | 117 to 120 °C
Cc1cc(C)c2c(O)c(O)c(O)nc2c1 | 280 to 282 °C
CCCCOC(=O)NS(=O)(=O)/C=C/c1cc(OCCCC)nn1Cc1ccc(Cl)cc1Cl | 137 to 138 °C
COc1cccc2c(Cl)c(CCCCl)cnc12 | 86 to 89 °C
CCOc1c(-c2ccc(F)cc2)c(=O)c1=O | 126 to 129 °C
COC(=O)NC1CCN(c2nc(N3CCOCC3)c3ncnc(N(C)Cc4ccccc4)c3n2)CC1 | 110 °C
CC(=O)OCCOc1ncnc(NS(=O)(=O)c2ccc(C)cc2)c1CCc1ccccc1 | 120 to 123 °C
Cc1nnc(-c2ccc3ncn(-c4cccc(OC(F)(F)F)c4)c3c2)o1 | 153 to 154 °C
CC(C)(C)Sc1c(-c2ccc(S(C)(=O)=O)cc2)cnn(CC(F)(F)F)c1=O | 186 to 189 °C
COCCCc1nnc(-c2ccc(-c3ccccc3)nc2)n1-c1cccc(C#N)c1C | 144 to 145 °C
CCOC(=O)C(=NOC)c1nc(N)cc(Cl)n1 | 136 to 142 °C

Other lines, results leading:

melting point | SMILES
145 to 147 °C | NC1=NS(=O)N=C1NCCCOc1cccc(CN2CCCCC2)n1 (stereo unspecified)
112 to 115 °C | COCCCCC(O)(c1ccccc1)c1ccccc1
115 °C | COc1nc(NC(=O)NS(=O)(=O)c2c(Br)csc2C(=O)c2cccs2)nc(OC)n1
128 to 129 °C | Cc1nc(OCc2c(C(C)C)nnn2-c2c(Cl)cccc2Cl)ccc1N(C)S(=O)(=O)c1ccc(C(=O)O)cc1
38 to 40 °C | Fc1ccc(-c2ccc(C(F)(F)F)cn2)cc1
136 to 138 °C | CC1CCN(CCCC(=O)c2ccc3sc4ccc(C(=O)CCCN5CCC(C)CC5)cc4c3c2)CC1
242 °C | NS(=O)(=O)c1cccc(-c2cn(-c3nc(-c4ccc(F)c(F)c4)cc(C(F)(F)F)n3)cn2)c1
59 to 62 °C | CC1(C)CC(OC(=O)CCCCCNC(=O)OC2CC(C)(C)NC(C)(C)C2)CC(C)(C)N1
193 to 195 °C | COCc1cc(O)c2cccc(OC)c2n1
188 °C | CC(C)c1c(S(=O)(=O)c2ccc(O)cc2)n(C)c2ccccc12
94 °C | CCCN(CCC)C(=O)n1cnc(S(C)(=O)=O)n1
152 to 153 °C | COc1ccc2c(c1)CC(=O)c1cc(C(C)C(=O)O)ccc1S2 (stereo unspecified)
102 to 104 °C | COc1ccc2cc(CCCOCCCCCCNCC(O)c3cc(Cl)c(N)c(Cl)c3)ccc2c1 (stereo unspecified)
176 to 177 °C | CCCS(=O)(=O)c1cc([C@H]2CC[C@H](c3cc(OC)c(OC)c(OC)c3)O2)cc(OC)c1OCc1ccccc1 (relative stereo)
48 to 50 °C | CCCCCCCCCCCCCCCC(=O)NCCCN1CCCCC1C (stereo unspecified)
99 to 100 °C | Cc1cccc(C2=NN(C(=O)c3cccnc3)CC2)c1

melting point | SMILES
147 to 149 °C | CC(C)Nc1cccnc1N1CCN(C(=O)c2ccc(C(=O)NC(CO)CO)cc2)CC1
> 268 °C | COCOc1ccc(-c2ncc3ncc(Cl)cc3n2)cc1
152 °C | O=Cc1ccc(Sc2nc3c(F)c(F)c(F)cc3[nH]2)o1
212 to 214 °C | Cc1c(C)c2c(c(C)c1NC(=O)NC(C)(C)C)C(O)(c1ccc3ccccc3c1)C(C)(C)O2 (stereo unspecified)
180 to 183 °C | CSC1CCC2C3CCC4=CC(=O)C=CC4(C)C3C(=O)CC12C (stereo unspecified)
244 to 245 °C | COC(=O)c1ncn2c1CN(C)C(=O)c1sccc1-2
103 to 105 °C | CC1N=C(N2CCN(CCO)CC2)NN=C1c1ccccc1 (stereo unspecified)
206 to 207 °C | CC(C)(C)NC(=O)NC1(C#N)CCCC1
128 °C | Nc1ccc(Oc2c(Cl)cc(C(F)(F)F)c(Cl)c2Cl)cc1Cl
224 °C | C=C(C)C=NNC1=NS(=O)(=O)c2ccccc21
300 to 302 °C | Cc1ccccc1-c1cc2cnc(N)nc2nc1N
106 °C | COC(=O)COC(=O)C(c1ccccc1)N1CCN(c2ccc(NC(=O)c3ccccc3-c3ccc(C(F)(F)F)cc3)cc2)CC1 (stereo unspecified)
140 °C | CS(=O)(=O)Nc1ccc([N+](=O)[O-])cc1SC1CCCCC1
215 to 217 °C | Cc1ccsc1-n1ncc(-c2ccc(S(C)(=O)=O)cc2)c(-c2ccc(F)cc2)c1=O
93 to 96 °C | Nc1ccc2c(c1Br)C(=O)CCC2
131 °C | CCOc1ccc(C=CC(=O)c2c(O)cc(OCC)cc2OCC)cc1
